For the test, the system named is E. coli 12140. Briefly: In vivo mouse protection, E. coli 12140. To be noted: Escherichia coli, po, E. coli 12140, p.o. An excerpt: Compound names corresponding to numbers are given in the experimental section. For comparative purposes, data for cephamandole, which is 7-mandelamido-3-(1-methyltetrazol-5-ylthiomethyl)-3-cephem-4-carboxylic acid, is also given in Tables 1 and 2.

For `N[C@@H](C(=O)NC1C(=O)N2C(C(=O)O)=C(CSc3nnnn3CC(=O)O)CS[C@H]12)c1ccc(O)cc1` (stereo partly drawn) [II, 7-(D-α-Amino-4-hydroxyphenylacetamido)-3-(1-carboxymethyl-tetrazol-5-ylthiomethyl)-3-cephem-4-carboxylic acid], the ED50 was 200 mg/kg.

(Values after patent US4286089A, “7-Acyl-3-(substituted tetrazolyl thiomethyl)cephalosporins” (SmithKline Corporation, priority 1974, dated 1981).)
